Experimental data: patent US20260347373A1, “HETEROCYCLIC COMPOUNDS, COMPOSITIONS THEREOF, AND METHODS OF TREATMENT THEREWITH” (BeOne Medicines I GmbH, priority 2023, published 2026)

What was measured:
KRAS G12D = KRAS G12D (Homo sapiens, UniProt P01116, G12D); experiment: KRAS G12D Probe Displacement Assay (TR-FRET, GDP-loaded); type: binding; details: KRAS G12D, read-out: KRAS^G12D Probe Displacement Assay IC50
From the text: (§1) The synthetic routes of probe 1 and 2, which have been disclosed in PCT/CN2022/070676, are hereby incorporated herein.

WT KRAS = WT KRAS (Homo sapiens, UniProt P01116); experiment: KRAS WT Probe Displacement Assay (TR-FRET, GDP-loaded); type: binding; details: KRAS WT, read-out: KRAS^WT Probe Displacement Assay IC50
From the text: as §1

Chain of KRAS G12D (P01116 1-188 isoform P01116-2 G12D): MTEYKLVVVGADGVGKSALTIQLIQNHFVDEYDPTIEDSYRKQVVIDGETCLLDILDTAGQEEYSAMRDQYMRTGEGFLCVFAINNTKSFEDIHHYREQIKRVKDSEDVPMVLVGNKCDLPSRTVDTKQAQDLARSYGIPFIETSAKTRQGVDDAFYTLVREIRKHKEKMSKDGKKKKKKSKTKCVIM
Chain of WT KRAS (P01116 1-188 isoform P01116-2): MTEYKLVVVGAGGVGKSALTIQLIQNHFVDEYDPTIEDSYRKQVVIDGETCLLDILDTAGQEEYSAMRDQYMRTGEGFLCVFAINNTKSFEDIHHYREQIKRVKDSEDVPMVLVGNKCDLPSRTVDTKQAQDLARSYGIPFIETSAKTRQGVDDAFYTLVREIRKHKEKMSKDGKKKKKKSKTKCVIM

SMILES	IC50 (KRAS G12D) [nM]	IC50 (WT KRAS) [nM]
Cc1cc(N)cc(-c2nc3c4c(nc(OCC5(C6CCCN6C)CC5)nc4c2F)N2C[C@H]4CC[C@H](N4)[C@H]2CCO3)c1C(F)(F)F (mixture of isomers) [Example 63, 3-((6aR,7S,10R)-1-fluoro-13-((1-(1-methylpyrrolidin-2-yl)cyclopropyl)methoxy)-5,6,6a,7,8,9,10,11-octahydro-4-oxa-3,11a,12,14,15-pentaaza-7,10-methanocyclohepta[4,5]cycloocta[1,2,3-de]naphthalen-2-yl)-5-methyl-4-(trifluoromethyl)aniline]	< 0.3	3 to 1000
Cc1cc(N)cc(-c2nc3c4c(nc(OCC5(CN6CCC7(C6)CC7(F)F)CC5)nc4c2F)N2C[C@H]4CC[C@H](N4)[C@H]2CCO3)c1C(F)(F)F (mixture of isomers) [Example 90, 3-((6aR,7S,10R)-13-((1-((1,1-difluoro-5-azaspiro [2.4]heptan-5-yl)methyl)cyclopropyl)methoxy)-1-fluoro-5,6,6a,7,8,9,10,11-octahydro-4-oxa-3, 11a,12,14,15-pentaaza[7,10]methanocyclohepta[4,5]cycloocta[1,2,3-de]naphthalen-2-yl)-5-methyl-4-(trifluoromethyl)aniline]	< 0.3	0.3 to 3
Cc1cc(N)cc(-c2nc3c4c(nc(OCC5(CN6CCC(O)(C(F)(F)F)C6)CC5)nc4c2F)N2C[C@H]4CC[C@H](N4)[C@H]2CCO3)c1C(F)(F)F (mixture of isomers) [Example 92, 1-((1-((((6aR,7S, 10R)-2-(5-amino-3-methyl-2-(trifluoromethyl)phenyl)-1-fluoro-5,6,6a,7,8,9,10,11-octahydro-4-oxa-3,11a,12,14,15-pentaaza-7,10-methanocyclohepta [4,5]cycloocta[1,2,3-de]naphthalen-13-yl)oxy)methyl)cyclopropyl)methyl)-3-(trifluoromethyl) pyrrolidin-3-ol]	< 0.3	3 to 1000
Cc1cc(N)cc(-c2nc3c4c(nc(OCC5(CN6CC7CC7(CO)C6)CC5)nc4c2F)N2C[C@H]4CC[C@H](N4)[C@H]2CCO3)c1C(F)(F)F (mixture of isomers) [Example 99, (3-((1-((((6aR,7S,10R)-2-(5-amino-3-methyl-2-(trifluoromethyl)phenyl)-1-fluoro-5,6,6a,7,8,9,10,11-octahydro-4-oxa-3,11a,12,14,15-pentaaza-7,10-methanocyclohepta [4,5]cycloocta [1,2,3-de]naphthalen-13-yl)oxy)methyl)cyclopropyl)methyl)-3-azabicyclo[3.1.0]hexan-1-yl)methanol]	< 0.3	0.3 to 3
Cc1cc(N)cc(-c2nc3c4c(nc(OCC5(CN6CCCC(C)(O)C6)CC5)nc4c2F)N2C[C@H]4CC[C@H](N4)[C@H]2CCO3)c1C(F)(F)F (mixture of isomers) [Example 116, 1-((1-((((6aR,7S, 10R)-2-(5-amino-3-methyl-2-(trifluoromethyl)phenyl)-1-fluoro-5,6,6a,7,8,9,10,11-octahydro-4-oxa-3,11a,12,14,15-pentaaza-7,10-methanocyclohepta [4,5]cycloocta [1,2,3-de]naphthalen-13-yl)oxy)methyl)cyclopropyl)methyl)-3-methylpiperidin-3-ol]	0.3 to 3	3 to 1000
CN1CCN(C)C(C)(COc2nc3c4c(nc(-c5cc(N)cc(Cl)c5C(F)(F)F)c(F)c4n2)OCC[C@@H]2[C@@H]4CC[C@H](CN32)N4)C1 (single isomer, unassigned) [Example 3]	< 0.3	3 to 1000
Cc1cc(N)cc(-c2nc3c4c(nc(OCC5(C)CN(C)CCN5C)nc4c2F)N2C[C@H]4CC[C@H](N4)[C@H]2CCO3)c1C(F)(F)F (single isomer, unassigned) [Example 4]	< 0.3	3 to 1000
Cc1cc(N)cc(-c2nc3c4c(nc(OCC5(CN(C)C)CC5(F)F)nc4c2F)N2C[C@H]4CC[C@H](N4)[C@H]2CCO3)c1C(F)(F)F (single isomer, unassigned) [Example 17]	< 0.3	3 to 1000
